Values joined by “and” are separate entries in the source; they are usually repeats but may differ in a detail not shown here. Equal entries are not always repeated. Where two headings read alike, the source gives them in different places.
How the values were obtained:
[1] = assay type: in vivo, rat
Summary of the method: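 Male SD rats (n=4/group) dosed PO at 13.2 or 14.2 mg/kg (10 mL/kg) and housed in metabolic cages with daily urine collection. EDTA blood sampled predose to 24 h post-dose, centrifuged at 4 °C to plasma, analysed by LC-MS.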

Caco-2 cells = assay: Caco-2 permeability study with or without P-gp inhibitor GF120918; conditions: for Abs. Quotient: (Papp A-B with inhibitor − without inhibitor)/Papp A-B with inhibitor; for Caco-2 Cells Permeability Recovery Rate: 1 hr, pH 7.4
Protocol: Buffer=HBSS, pH 7.4 with 5 mM HEPES
Caco-2 cell plates were obtained commercially and were maintained for 21 days at 37° C. with 5% CO2. Cells were washed with Hank's Balanced Salt Solution (HBSS) 30 min before starting the experiment. Test compound solutions were prepared by diluting from DMSO stock into HBSS buffer in the presence or absence of 10 μM of P-gp inhibitor GF120918. The final DMSO concentration is 0.2%. Prior to each experiment, cell monolayer integrity was verified by transendothelial electrical resistance (TEER). Transport experiment was initiated by adding test compounds to the apical (75 μL) side. Transport plates were incubated at 37° C. in a humidified incubator with 5% CO2. Samples were taken from the donor and acceptor compartments after 1 hr and analyzed by liquid chromatography with tandem mass spectrometry (LC/MS/MS).
Apparent permeability (Papp) values were calculated using the following equation: Papp=(dQ/dt)/A/C0
where dQ/dt is the initial rate of amount of test compound transported across cell monolayer, A is the surface area of the filter membrane, and C0 is the initial concentration of the test compound. C0 is calculated for each condition using a 4-point calibration curve.
Absorption quotient between the two assay conditions was calculated by the following equation:
Absorption quotient (AQ)=(Papp, A-B with inhibitor−Papp, A-B without inhibitor)/Papp, A-B with inhibitor where Papp, A-B with inhibitor and Papp, A-B without inhibitor represent the apparent permeability of test compound from the apical to basal side of the cellular monolayer in the presence and absence of 10 μM P-gp inhibitor GF120918, respectively.
All samples were analyzed on LC/MS/MS using an AB Sciex API 4000 instrument, coupled to a Shimadzu LC-20AD LC Pump system. Analytical samples were separated using a Waters Atlantis T3 dC18 reverse phase HPLC column (10 mm×2.1 mm) at a flow rate of 0.5 mL/min. The mobile phase consisted of 0.1% formic acid in water (solvent A) and 0.1% formic acid in acetonitrile (solvent B).

[2] = Rat, PO, 10 mg/kg equiv., n = 4, analyte: Parent (BASE STRUCTURE)
[3] = Rat, PO, 10 mg/kg equiv., n = 4, analyte: Prodrug
[4] = rat, dosed as prodrug, 10 mg/kg equivalent of Base Structure, analyte Parent (Base Structure), Average
[5] = rat, dosed as prodrug, 10 mg/kg equivalent of Base Structure, analyte Parent (Base Structure), Combined (average ± std. dev.)
[6] = rat, dosed as prodrug, 10 mg/kg equivalent of Base Structure, analyte Parent (Base Structure), individual animals
[7] = rat, dosed as prodrug, 10 mg/kg equivalent of Base Structure, analyte Parent (Base Structure), individual animals, 10 mg/kg
[8] = rat, dosed as prodrug, 10 mg/kg equivalent of Base Structure, analyte Prodrug, Average
[9] = rat, dosed as prodrug, 10 mg/kg equivalent of Base Structure, analyte Prodrug, Combined (average ± std. dev.)
[10] = rat, dosed as prodrug, 10 mg/kg equivalent of Base Structure, analyte Prodrug, individual animals
[11] = +GF120918 (10 μM), 10 μM compound
[12] = rat, dosed as prodrug, 10 mg/kg equivalent of Base Structure, analyte Prodrug, individual animals, 10 mg/kg

With `CCCCCC(=O)NC(Cc1ccc(OC(=O)N2CCN(C)CC2)cc1)C(=O)NC(C(=O)NCCCCCC(N)=O)C(C)CC` (stereo not shown) [Compound A20] the “AUC0-24 (ng · h/mL)” value [1, 2] was 0.8 ± 1^ ng · h/mL, the “AUC0-inf” value [1, 2] was 1.61 ng·h/mL and the “Cmax” value [1, 2] was 1.7 ± 1.3 ng/mL. The “Tmax (h)” value [1, 2] was 0.3 ± 0^ h, the “half-life” value [1, 2] was 0.17 h and the “Tmax” value [1, 3] was 0 h. The “AUC 0-inf_obs” value [1, 4] was 1.611 ng·h/mL, the “AUC 0-t” value [1, 4] was 0.8309 ng·h/mL and the “AUMC 0-inf_obs” value [1, 4] was 0.6699 ng/ml * h^2. For the same compound, the Cl/F_obs [1, 4] was 6.207 (mg/kg)/(ng/ml)/h, the Cmax [1, 4] was 1.7125 ng/mL and the Lambda_z [1, 4] was 4.022 h⁻¹. The “MRT 0-inf_obs” value [1, 4] was 0.4158 h, the Tlag [1, 4] was 0 h and the Tmax [1, 4] was 0.25 h. The Vz/F_obs [1, 4] was 1.543 (mg/kg)/(ng/ml), the t1/2 [1, 4] was 0.1723 h and the “AUC 0-inf_obs” value [1, 5] was 1.611 ng·h/mL. The “AUC 0-t” value [1, 5] was 0.8 ± 1 ng·h/mL, the “AUMC 0-inf_obs” value [1, 5] was 0.6699 ng/ml * h^2 and the Cl/F_obs [1, 5] was 6.207 (mg/kg)/(ng/ml)/h. The Cmax [1, 5] was 1.7 ± 1.3 ng/mL, the Lambda_z [1, 5] was 4.022 h⁻¹ and the “MRT 0-inf_obs” value [1, 5] was 0.4158 h. For the same compound, the Tlag [1, 5] was 0 ± 0 h, the Tmax [1, 5] was 0.3 ± 0 h and the Vz/F_obs [1, 5] was 1.543 (mg/kg)/(ng/ml). For the same compound, the t1/2 [1, 5] was 0.1723 h, the “AUC 0-inf_obs” value [1, 6] was 1.611 ng·h/mL and the “AUMC 0-inf_obs” value [1, 6] was 0.6699 ng/ml * h^2. For the same compound, the Cl/F_obs [1, 6] was 6.207 (mg/kg)/(ng/ml)/h, the Lambda_z [1, 6] was 4.022 h⁻¹ and the “MRT 0-inf_obs” value [1, 6] was 0.4158 h. For the same compound, the Tlag [1, 6] was 0 h, the Tmax [1, 6] was 0.25 h and the Vz/F_obs [1, 6] was 1.543 (mg/kg)/(ng/ml). The t1/2 [1, 6] was 0.1723 h, the “AUC 0-t” value [1, 7] was 0.08927 ng·h/mL and 1.5726 ng·h/mL and the Cmax [1, 7] was 0.765 ng/mL and 2.66 ng/mL. For the same compound, the “AUMC 0-inf_obs” value [1, 8] was 0 ng/ml * h^2, the Cl/F_obs [1, 8] was 0 (mg/kg)/(ng/ml)/h and the Lambda_z [1, 8] was 0 h⁻¹. The Tlag [1, 8] was 0 h, the Tmax [1, 8] was 0 h and the Vz/F_obs [1, 8] was 0 (mg/kg)/(ng/ml). The “AUMC 0-inf_obs” value [1, 9] was 0 ng/ml * h^2, the Cl/F_obs [1, 9] was 0 (mg/kg)/(ng/ml)/h and the Lambda_z [1, 9] was 0 h⁻¹. The Tlag [1, 9] was 0 h, the Tmax [1, 9] was 0 h and the Vz/F_obs [1, 9] was 0 (mg/kg)/(ng/ml). For the same compound, the “AUMC 0-inf_obs” value [1, 10] was 0 ng/ml * h^2, the Cl/F_obs [1, 10] was 0 (mg/kg)/(ng/ml)/h and the Lambda_z [1, 10] was 0 h⁻¹. The Tlag [1, 10] was 0 h, the Tmax [1, 10] was 0 h and the Vz/F_obs [1, 10] was 0 (mg/kg)/(ng/ml). For the same compound, the “Abs. Quotient” value (Caco-2 cells) was 0.88, the “Caco-2 Cells Permeability Recovery Rate” value (Caco-2 cells; [11]) was 90% and the “Caco-2 Cells Permeability Recovery Rate” value (Caco-2 cells; −GF120918, 10 μM compound) was 71%.

For `CCCCCC(=O)NC(Cc1ccc(OC(=O)NCCN(C)C)cc1)C(=O)NC(C(=O)NCCCCCC(N)=O)C(C)CC` (stereo not shown) [Compound A21], the “AUC0-24” value [1, 2] was 7.4 ± 0.9 ng·h/mL, the “AUC0-inf” value [1, 2] was 47.8 ± 1 ng·h/mL and the “Cmax” value [1, 2] was 0.6 ± 0.1 ng/mL. For the same compound, the “Tmax” value [1, 2] was 0.9 ± 0.8 h, the “half-life” value [1, 2] was 81.7 ± 5.7 h and the “AUC0-24” value [1, 3] was 2.8 ± 1.9 ng·h/mL. For the same compound, the “AUC0-inf” value [1, 3] was 6.46 ng·h/mL, the “Cmax” value [1, 3] was 1.6 ± 0.5 ng/mL and the “Tmax” value [1, 3] was 0.8 ± 0.4 h. The “half-life” value [1, 3] was 1.32 h, the “AUC 0-inf_obs” value [1, 4] was 47.78 ng·h/mL and the “AUC 0-t” value [1, 4] was 7.45 ng·h/mL. The “AUMC 0-inf_obs” value [1, 4] was 5777.4305 ng/ml * h^2, the Cl/F_obs [1, 4] was 0.2094 (mg/kg)/(ng/ml)/h and the Cmax [1, 4] was 0.62 ng/mL. For the same compound, the Lambda_z [1, 4] was 0.008507 h⁻¹, the “MRT 0-inf_obs” value [1, 4] was 120.8 h and the Tlag [1, 4] was 0 h. For the same compound, the Tmax [1, 4] was 0.875 h, the Vz/F_obs [1, 4] was 24.65 (mg/kg)/(ng/ml) and the t1/2 [1, 4] was 81.6756 h. For the same compound, the “AUC 0-inf_obs” value [1, 5] was 47.8 ± 1 ng·h/mL, the “AUC 0-t” value [1, 5] was 7.4 ± 0.9 ng·h/mL and the “AUMC 0-inf_obs” value [1, 5] was 5777.4 ± 551.6 ng/ml * h^2. The Cl/F_obs [1, 5] was 0.2 ± 0 (mg/kg)/(ng/ml)/h, the Cmax [1, 5] was 0.6 ± 0.1 ng/mL and the Lambda_z [1, 5] was 0 ± 0 h⁻¹. The “MRT 0-inf_obs” value [1, 5] was 120.8 ± 9.1 h, the Tlag [1, 5] was 0 ± 0 h and the Tmax [1, 5] was 0.9 ± 0.8 h. For the same compound, the Vz/F_obs [1, 5] was 24.7 ± 1.2 (mg/kg)/(ng/ml), the t1/2 [1, 5] was 81.7 ± 5.7 h and the Tlag [1, 6] was 0 h. The “AUC 0-inf_obs” value [1, 7] was 48.45 ng·h/mL and 47.1 ng·h/mL, the “AUC 0-t” value [1, 7] was 7.285 ng·h/mL and 8.222 ng·h/mL and 6.27 ng·h/mL and 8.022 ng·h/mL and the “AUMC 0-inf_obs” value [1, 7] was 6167.4557 ng/ml * h^2 and 5387.4053 ng/ml * h^2. The Cl/F_obs [1, 7] was 0.2064 (mg/kg)/(ng/ml)/h and 0.2123 (mg/kg)/(ng/ml)/h, the Cmax [1, 7] was 0.744 ng/mL and 0.604 ng/mL and 0.555 ng/mL and 0.577 ng/mL and the Lambda_z [1, 7] was 0.00809 h⁻¹ and 0.008925 h⁻¹. For the same compound, the “MRT 0-inf_obs” value [1, 7] was 127.3 h and 114.4 h, the Tmax [1, 7] was 0.25 h (2×) and 1 h and 2 h and the Vz/F_obs [1, 7] was 25.51 (mg/kg)/(ng/ml) and 23.79 (mg/kg)/(ng/ml). For the same compound, the t1/2 [1, 7] was 85.68 h and 77.67 h, the “AUC 0-inf_obs” value [1, 8] was 6.459 ng·h/mL and the “AUC 0-t” value [1, 8] was 2.846 ng·h/mL. For the same compound, the “AUMC 0-inf_obs” value [1, 8] was 13.69 ng/ml * h^2, the Cl/F_obs [1, 8] was 1.548 (mg/kg)/(ng/ml)/h and the Cmax [1, 8] was 1.615 ng/mL. The Lambda_z [1, 8] was 0.5257 h⁻¹, the “MRT 0-inf_obs” value [1, 8] was 2.119 h and the Tlag [1, 8] was 0 h. The Tmax [1, 8] was 0.8125 h, the Vz/F_obs [1, 8] was 2.945 (mg/kg)/(ng/ml) and the t1/2 [1, 8] was 1.319 h. The “AUC 0-inf_obs” value [1, 9] was 6.459 ng·h/mL, the “AUC 0-t” value [1, 9] was 2.8 ± 1.9 ng·h/mL and the “AUMC 0-inf_obs” value [1, 9] was 13.69 ng/ml * h^2. The Cl/F_obs [1, 9] was 1.548 (mg/kg)/(ng/ml)/h, the Cmax [1, 9] was 1.6 ± 0.5 ng/mL and the Lambda_z [1, 9] was 0.5257 h⁻¹. For the same compound, the “MRT 0-inf_obs” value [1, 9] was 2.119 h, the Tlag [1, 9] was 0 ± 0 h and the Tmax [1, 9] was 0.8 ± 0.4 h. The Vz/F_obs [1, 9] was 2.945 (mg/kg)/(ng/ml), the t1/2 [1, 9] was 1.319 h and the “AUC 0-inf_obs” value [1, 10] was 6.459 ng·h/mL. For the same compound, the “AUMC 0-inf_obs” value [1, 10] was 13.69 ng/ml * h^2, the Cl/F_obs [1, 10] was 1.548 (mg/kg)/(ng/ml)/h and the Lambda_z [1, 10] was 0.5257 h⁻¹. The “MRT 0-inf_obs” value [1, 10] was 2.119 h, the Tlag [1, 10] was 0 h and the Vz/F_obs [1, 10] was 2.945 (mg/kg)/(ng/ml). The t1/2 [1, 10] was 1.319 h, the “AUC 0-t” value [1, 12] was 5.619 ng·h/mL and 2.381 ng·h/mL and 1.498 ng·h/mL and 1.885 ng·h/mL and the Cmax [1, 12] was 2.18 ng/mL and 1.89 ng/mL and 1.01 ng/mL and 1.38 ng/mL. The Tmax [1, 12] was 0.25 h and 1 h (3×), the “Abs. Quotient” value (Caco-2 cells) was 0.50 and the “Caco-2 Cells Permeability Recovery Rate” value (Caco-2 cells; [11]) was 84%. The “Caco-2 Cells Permeability Recovery Rate” value (Caco-2 cells; −GF120918, 10 μM compound) was 84%.

From patent US12421276B2 (priority 2016, dated 2025)
